Assay results published in patent publication US20080039442A1, “Compounds With Kv4 Ion Channel Activity” (Devgen NV, priority 2004, published 2008).

Legend:
[1] = system: conscious telemetric mice; experiment: Telemetric ECG in conscious mice, consecutive i.p. dosing; type: in vivo, mice (NRMI)
Procedure: Male mice (NRMI) were anesthetized with a gas mixture of isoflurane, nitrous oxide and oxigen. Leads connected to a telemetry transmitter (TA10EA-F20, DSI, St. Paul, USA) were fixed by suture in the xiphoid and ventral neck region. The telemetry transmitter was placed under the skin on the back. Wounds were closed in layers and the animals were allowed to recover for at least 1 week.
On the day of the experiment the animals receive consecutive doses of vehicle i.p. at 60 min dosing intervals. ECG tracings (12 s duration) was recorded using the Data Sciences A.R.T. system. After completion of the experiment ECGs were analyzed automatically by Data Sciences ECG software (DSI, St. Paul, USA). QT and QRS intervals were measured manually in the stored ECGs. QTc was calculated from the QT interval and the corresponding heart rate using Bazett's formula. Heart rate was taken from the online analysis, given by the DSI Labpro and DSI A.R.T. systems (DSI, St. Paul, USA). Finally, ECG intervals were transferred to an Excel spreadsheet, checked for plausibility, and converted into 15 min averages.

hERG potassium channel = hERG potassium channel (Homo sapiens, UniProt Q12809)
Source text: For this experiment HEK 293 T-REx HERG cells (#23) were used. This cell line made by IonGate is characterized by the inducible expression of the hERG gene. The T-REx™ System (Invitrogen, Karlsruhe, Germany) is a tetracycline-regulated mammalian expression system that uses regulatory elements from the E. coli Tn10-encoded tetracycline (Tet) resistance operon. In the absence of Tet the expression is repressed. Tetracycline regulation in the T-REx™ System is based on the binding of tetracycline to the Tet repressor and derepression of the promoter controlling expression of the hERG gene. Addition of Tet to the cell culture media results in expression of the hERG potassium channel.
To construct the HEK 293 T-REx HERG cell line, the hERG gene was ligated into the inducible expression vector pcDNA4/TO (→pc4TO-HERG) and transfected into HEK 293 T-REx cells (this cell line stably expresses the Tet repressor and was purchased at Invitrogen). Stable cell clones were isolated after selection with Blasticidin (5 μg/ml) and Zeocin™ (300 μg/ml). The clones were electrophysiological characterized after induction with 1 μg/ml Tet.
Experiments were performed using the patch clamp set-up. Technical equipment needed for manipulation of the cells was placed on a vibration-isolated table and shielded with a Faraday cage to minimize electrical noise. The amplifier and control system were placed in a rack outside the Faraday cage. The system consisted of an EPC9 or EPC10 patch clamp amplifier (HEKA, Lambrecht, Germany), and the perfusion system DADVC8 (ALA Scientific, New York, USA) controlled by the Pulse software package (HEKA, Lambrecht, Germany) installed on a personal computer.
The cells used for this experiment were kept in continuous culture under standard conditions (37° C., air supplemented with 5% CO2). The HEK 293 T-REx HERG cells were kept in minimal essential medium (MEM) supplemented with 100 U/ml Penicillin, 100 μg/ml Streptomycin, 10% fetal calf serum (FCS), 1% non-essential amino acids (NEAA), 2.5 μg/ml amphotericin, 300 μg/ml Zeocin™ and 5 μg/ml Blasticidin. Cells were passed every 3-4 days after detachment using a Trypsin solution. The quality of the cultured cells was guaranteed by vitality and contamination tests.
At least 18 hours prior to electrophysiological experiments the cells were detached by application of iced PBS (phosphate buffered saline) or Trypsin and replated on cover slips. 1 μg/ml Tet was added to the cells to induce hERG expression.
Activity of the cardiac hERG channel was investigated using the patch clamp technique in its whole cell mode. This means that the current needed for clamping the whole cell expressing the K^+-channel protein to a specific potential was measured. The pipettes used for patch clamping were made of borosilicate glass. Measurements were performed at room temperature (20-25° C.). In each experiment (i.e. each cell) only one concentration of the compound was investigated—no cumulative dosages were performed. Each cell acted as its own control. The effect of the compounds on hERG mediated currents was investigated at one concentration (10 μM) with two replicates each (c=1, n=2).
Between voltage pulses the cell was clamped to a holding potential of −80 mV (inside).
(b) and (c) were used to characterize the properties of the hERG channel and to check the quality of the individual patch clamp experiment (voltage control). Each test protocol consisted of 6 segments.

[2] = system: isolated guinea pig right ventricular papillary muscle; experiment: Ex-vivo functional refractory period in isolated guinea pig papillary muscle; settings: conc 10^−5 mol/l
Source text: (§1) The compounds were checked for their effect on the force of contraction, stimulation threshold and for the Functional Refractory Period (FRP) in isolated rat left atria (Rat LA). Rat left atria functionally express the Kv4.3 ion channel, producing the Ito current of the action potential. […] The guinea pig action potential is dominated by hERG like ion channels for the refractory currents. Consequently, activity of hERG channels in vivo should be seen in GP papillary muscle preparations.
Method: Rat LA (Same Method Applies to GP Pap. Muscle)
Left atria were mounted vertically in a two-chambered organ bath containing 100 ml of buffer solution (in mM: NaH2PO4 0.6, MgSO4 0.6, KCl 4.7, NaHCO3 25, glucose 4.5, NaCl 120, CaCl2 2.4). The solution was saturated with and circulated by a gas mixture containing 95% O2 and 5% CO2. The temperature was kept constant at 30° C. […] The isometric force of the preparations was measured by force transducers, connected to amplifiers, documented by a pen recorder and fed into a computer for evaluation. Force of contraction (FC), threshold stimulus (TS) and the functional refractory period (FRP) were measured at baseline (pre), 20 min after addition of compound, and after washout at the end of the experiment. Threshold stimulus, representing excitability of the tissue, was assessed by varying the voltage applied for electrical stimulation. […]

isolated rat left atria = experiment: Ex-vivo functional refractory period in isolated rat left atria; settings: conc 10^−5 mol/l
Source text: as §1
Left atria were mounted vertically in a two-chambered organ bath containing 100 ml of buffer solution (in mM: NaH2PO4 0.6, MgSO4 0.6, KCl 4.7, NaHCO3 25, glucose 4.5, NaCl 120, CaCl2 2.4). […] The isometric force of the preparations was measured by force transducers, connected to amplifiers, documented by a pen recorder and fed into a computer for evaluation. Force of contraction (FC), threshold stimulus (TS) and the functional refractory period (FRP) were measured at baseline (pre), 20 min after addition of compound, and after washout at the end of the experiment. Threshold stimulus, representing excitability of the tissue, was assessed by varying the voltage applied for electrical stimulation. […] The functional refractory period, representing the time needed for repolarization, was assessed by applying extra stimuli at varying time intervals from the preceding regular pacing stimulus. […]

Sequence of hERG potassium channel (Q12809 whole entry): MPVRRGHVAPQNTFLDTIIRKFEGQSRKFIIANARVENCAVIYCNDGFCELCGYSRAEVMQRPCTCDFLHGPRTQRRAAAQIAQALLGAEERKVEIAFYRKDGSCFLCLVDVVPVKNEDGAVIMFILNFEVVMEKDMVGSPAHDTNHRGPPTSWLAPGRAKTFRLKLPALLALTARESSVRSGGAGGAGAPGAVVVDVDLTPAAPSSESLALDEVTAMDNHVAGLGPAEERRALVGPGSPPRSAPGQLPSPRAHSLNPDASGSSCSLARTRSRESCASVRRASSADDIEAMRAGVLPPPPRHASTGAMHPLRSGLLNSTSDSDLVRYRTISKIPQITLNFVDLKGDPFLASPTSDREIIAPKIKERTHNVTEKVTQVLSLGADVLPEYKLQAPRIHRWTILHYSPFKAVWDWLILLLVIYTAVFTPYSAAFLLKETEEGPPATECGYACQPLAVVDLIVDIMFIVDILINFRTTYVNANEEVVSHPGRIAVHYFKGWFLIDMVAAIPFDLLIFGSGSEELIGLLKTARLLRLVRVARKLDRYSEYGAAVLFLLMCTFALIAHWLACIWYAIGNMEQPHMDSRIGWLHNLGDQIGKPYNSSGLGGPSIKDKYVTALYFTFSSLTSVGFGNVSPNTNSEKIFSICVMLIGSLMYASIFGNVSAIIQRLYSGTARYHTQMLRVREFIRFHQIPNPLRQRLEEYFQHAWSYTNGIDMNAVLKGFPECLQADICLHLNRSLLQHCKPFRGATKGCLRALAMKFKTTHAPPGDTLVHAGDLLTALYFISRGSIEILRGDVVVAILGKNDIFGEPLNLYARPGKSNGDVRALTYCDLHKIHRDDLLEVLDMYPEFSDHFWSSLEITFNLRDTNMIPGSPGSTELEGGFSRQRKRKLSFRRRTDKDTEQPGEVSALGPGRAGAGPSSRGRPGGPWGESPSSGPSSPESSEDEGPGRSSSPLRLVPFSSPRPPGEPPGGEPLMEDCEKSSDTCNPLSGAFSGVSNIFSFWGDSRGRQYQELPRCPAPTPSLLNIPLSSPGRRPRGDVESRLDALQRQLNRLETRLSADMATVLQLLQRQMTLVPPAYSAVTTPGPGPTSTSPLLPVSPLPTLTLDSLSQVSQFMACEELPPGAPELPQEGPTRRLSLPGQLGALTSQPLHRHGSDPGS

Substance: 5-chloro-benzofuran-2- carboxylic acid 2,4- dimethoxy- benzylamide [Compound 2]
- maximum prolongation of QTc ([1]; 15 μmol/kg i.p., highest dose tested, Bazett, n=5): 33 ms
- maximum prolongation of QT ([1]; 15 μmol/kg i.p., highest dose tested, n=5): 12 ms
- Heart rate (result in words) ([1]; 3-15 μmol/kg i.p.): minor and not significant decrease
- Locomotor activity (result in words) ([1]; 3-15 μmol/kg i.p.): reproducible rise after each of the subsequent injections
- PQ and QRS (result in words) ([1]; 3-15 μmol/kg i.p.): did not show dose-dependent changes
- IC50 (hERG potassium channel): 16.7 µM
- Ratio hERG/Kv4.3 (hERG potassium channel): 9.6
- dFRP Guinea Pig [2]: 0 ms
- dFRP Rat (isolated rat left atria): 17 ms
